Assay results from US10092541B2, “Methods for the treatment of diseases ameliorated by PDE4 inhibition using dosage titration of apremilast” (CELGENE CORPORATION, priority 2014, dated 2018).
Marks after values point to notes of the source that are not given here.

Columns and labels:
[1] = tested on: patients with moderate to severe plaque psoriasis; test: Esteem 1: randomized, double-blind, placebo controlled, multicenter clinical study in psoriasis; format: in vivo, human; conditions: for PASI-75, %: primary endpoint
Method: (§1) In the study 844 patients were enrolled; patients ranged in age from 18 to 83 years, with an overall median age of 46 years. The mean baseline body surface area (BSA) involvement was 25.19% (median 21.0%), the mean baseline PASI score was 19.07 (median 16.80), and the proportion of patients with sPGA score of 3 (moderate) and 4 (severe) at Baseline were 70.0% and 29.8%, respectively. Patients were randomized to Apremilast, in an amount of 30 mg twice per day (after the initial dose titration schedule) or placebo for the first 16 weeks, and from Weeks 16 to 32, all patients received Apremilast in an amount of 30 mg twice per day.
(§2) Target Dose: 30 mg (po) BID
(§3) Day 1: 10 mg in the morning
(§4) Day 2: 10 mg morning; 10 mg after noon
(§5) Day 3: 10 mg morning; 20 mg after noon
(§6) Day 4: 20 mg morning; 20 mg after noon
(§7) Day 5: 20 mg morning; 30 mg after noon
(§8) During the Randomized Treatment Withdrawal Phase (Weeks 32-52), patients originally randomized to Apremilast who achieved at least a 75% reduction in PASI score (PASI-75) at Week 32 were re-randomized to either placebo or Apremilast 30 mg BID. Patients who were re-randomized to placebo and who lost PASI-75 response at Week 32 compared to Baseline, were retreated with Apremilast 30 mg BID.

[2] = tested on: patients with moderate to severe plaque psoriasis; test: Esteem 2: randomized, double-blind, placebo controlled, multicenter clinical study in psoriasis; format: in vivo, human; conditions: for PASI-75, % (LOCF): primary endpoint; for sPGA score 0 (clear) or 1 (almost clear), % (LOCF): with ≥2-point reduction from baseline
Method: as §1, with “413” for “844”, “Apremilast” for “Apremilast,”
as §2, §3, §4, §5, §6, §7
as §8, with “50%” for “75%”, “(PASI-50)” for “(PASI-75) at Week 32”, “50% of the improvement in PASI” for “PASI-75 response”

[3] = 77 PASI 75 responders re-randomized to apremilast 30 mg BID at Week 32
[4] = Week 16, 30 mg twice daily, n = 562, LOCF
[5] = Week 16, 30 mg twice daily, n = 562, LOCF, listed as Apremilast
[6] = Week 16, 30 mg twice daily, patients with baseline DLQI >5, n = 459
[7] = Week 16, 30 mg twice daily, patients with nail psoriasis at baseline, n = 363
[8] = 61 patients with ≥PASI-50 at Week 32 re-randomized to apremilast
[9] = Week 16, 30 mg BID, n = 274, LOCF
[10] = Week 16, 30 mg BID, n = 274, LOCF, listed as Apremilast
[11] = Week 16, 30 mg BID, n = 274, listed as Apremilast

Discontinuation due to upper respiratory tract infection ([1]; human, in vivo): No patient discontinued
SMILES: CCOc1cc([C@@H](CS(C)(=O)=O)N2C(=O)c3cccc(NC(C)=O)c3C2=O)ccc1OC [apremilast, (+)-2-[1-(3-ethoxy-4-methoxyphenyl)-2-methylsulfonylethyl]-4-acetylaminoisoindoline-1,3-dione]
Non-overlapping confidence intervals vs placebo in mean percentage improvement in PASI from baseline, first detected ([1]; 30 mg twice daily): as early as Week 2
Responses to apremilast from Weeks 16 to 32 ([1]; 30 mg twice daily): generally maintained
regained PASI 75 response after re-treatment, % ([1]; 64 patients re-randomized to placebo who re-initiated apremilast before Week 52 after losing PASI 75): 70.3%
PASI-75 response at Week 52, % [1, 3]: 61.0%
at least 70% improvement in PASI score from baseline at Week 52, % [1, 3]: 75.3%
Mean change in DLQI score [1, 4]: −6.6
PASI-50, % [1, 4]: (58.7%)*
PASI-90, % [1, 4]: (9.8%)*
Percentage change in PASI score, mean (SD) [1, 4]: −52.1%
Percentage change in PASI score, median (range) [1, 4]: −59.0%
sPGA response (score 0 or 1 with at least two-point reduction), % [1, 4]: 21.7%
sPGA response (score 0 or 1 with at least two-point reduction), % [1, 5]: (21.7%)*
PASI-75, % [1, 4]: 33.1%
PASI-75, % [1, 5]: (33.1%)*
DLQI + PASI-50 response, % [1, 6]: (48.1%)*
DLQI response (decrease of at least five points), % [1, 6]: (70.2%)*
NAPSI-50, % [1, 7]: (33.3%)*
Percentage change in NAPSI score, mean (SD) [1, 7]: −22.5%
ScPGA score 0-1, % ([1]; Week 16, 30 mg twice daily, patients with scalp psoriasis (ScPGA at least 3) at baseline, n = 374): (46.5%)*
Severity of the majority of adverse events ([1]; did not lead to discontinuation): mild to moderate
5 most common adverse events (AEs) ([1]; human, in vivo): diarrhea, nausea, upper respiratory tract infection, tension headache, and headache
Discontinuations due to AEs: diarrhea ([1]; human, in vivo): 0.8%
Discontinuations due to AEs: headache ([1]; human, in vivo): 0.4%
Discontinuations due to AEs: nausea ([1]; human, in vivo): 1.2%
Discontinuations due to AEs: tension headache ([1]; human, in vivo): 0.2%
Mean percentage change from baseline in PASI score at Week 52 ([1]; patients re-randomized to apremilast 30 mg BID at Week 32): 80.5%
Median time to first loss of PASI 75 after re-randomization ([1]; patients re-randomized to apremilast at Week 32): 17.7 weeks
signs and symptoms of psoriasis ([1]; study conclusion): significantly improved
Non-overlapping confidence intervals vs placebo in improvement in pruritus and skin discomfort/pain from baseline, first detected ([2]; 30 mg BID): as early as Week 2
Non-overlapping confidence intervals vs placebo in mean percentage improvement in PASI from baseline, first detected ([2]; 30 mg BID, first post-baseline visit): as early as Week 2
regained PASI-50 response after re-treatment ([2]; 32 patients re-randomized to placebo who lost 50% of PASI improvement and re-initiated apremilast before Week 52): 65.6%
PASI-75 at Week 52 ([2]; 36 patients re-randomized to apremilast who were also PASI-75 responders at Week 32): 66.7%
PASI-50 response at Week 52 [2, 8]: 80.3%
mean percent change in PASI at Week 52 [2, 8]: −74.4%
≥70% improvement from baseline in PASI score at Week 52 [2, 8]: 60.7%
decrease in pruritus severity from baseline ([2]; Week 16, 30 mg BID): ~50%
decrease in skin discomfort/pain severity from baseline ([2]; Week 16, 30 mg BID): ~50%
PASI-50, % (LOCF) ([2]; Week 16, 30 mg BID, n = 274): 55.5%
PASI-50, % (NRI) ([2]; Week 16, 30 mg BID, n = 274): 53.6* %
PASI-75, % (NRI) ([2]; Week 16, 30 mg BID, n = 274): 28.1* %
PASI-90, % (LOCF) ([2]; Week 16, 30 mg BID, n = 274): 8.8%
sPGA score 0 (clear) or 1 (almost clear), % (NRI) ([2]; Week 16, 30 mg BID, n = 274): 19.7* %
Mean % change in PASI score [2, 9]: −50.9%
Mean change in DLQI score [2, 9]: −6.7*
Mean change in pruritus VAS score, mm [2, 9]: −33.5 mm
Mean change in skin discomfort/pain VAS score, mm [2, 9]: −28.5 mm
Median % change in PASI score [2, 9]: −56.0%
Mean % change in PASI score [2, 10]: −50.9* %
Mean change in pruritus VAS score, mm [2, 10]: −33.5* mm
Mean change in skin discomfort/pain VAS score, mm [2, 10]: −28.5* mm
PASI-50, % (LOCF) [2, 11]: 55.5* %
PASI-90, % (LOCF) [2, 11]: 8.8^‡ %
PASI-75, % (LOCF) ([2]; Week 16, 30 mg BID, n = 274): 28.8%
PASI-75, % (LOCF) [2, 11]: 28.8* %
sPGA score 0 (clear) or 1 (almost clear), % (LOCF) ([2]; Week 16, 30 mg BID, n = 274): 20.4%
sPGA score 0 (clear) or 1 (almost clear), % (LOCF) [2, 11]: 20.4* %
